Values joined by “and” are separate entries in the source; they are usually repeats but may differ in a detail not shown here. Equal values may be shown once. Read-outs that look alike come from different tables or passages of the source.
Legend:
[1] = tested on: testosterone-enhanced ventral prostate and seminal vesicle weights; assay: Ventral Prostate and Seminal Vesicle Weight in vivo Assay; set-up: species or system rat; conditions: immature castrated male Sprague Dawley rats, once daily for five days, usually orally 40 mg/kg, with testosterone propionate 2 mg/kg s.c. Also: key: 'active' if the non weight adjusted prostate weight was ≦40 mg or the % Inhibition prostate weight, body weight adjusted was ≧40% @ 2 mg/day dosage; ID50's, if determined, of ≦15 mg/day also indicated an 'active' compound; listed herein as 'inactive' as they did not meet the specified criteria defined above.
How it was run: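 Immature castrated male Sprague Dawley rats (~50 g) were dosed once daily for five days with compound, usually orally at 40 mg/kg in cyclodextrin or methylcellulose vehicle. Testosterone propionate was co-dosed subcutaneously at 2 mg/kg. On day six, ventral prostate and seminal vesicle wet weights were measured; activity was judged on prostate weight or body-weight-adjusted % inhibition.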

[2] = molecular target: T1, androgen receptor (AdEasy+rAR, L929 cells) (Rattus norvegicus, UniProt P15207); assay: L929 Androgen Receptor Functional Assay, Adenovirus Transduction; format: cell-based; conditions: for inhibition at 3 µM: L929, antagonist testing with R1881, 3000 nM; for % Activity, L929 androgen receptor functional assay / EC50: agonist testing; for IC50: antagonist testing with R1881; for % Inhibition, L929 androgen receptor functional assay: antagonist testing with R1881, 3000 nM
T1 construct: expressed in transfected cells; host or cells: L929 cells transduced with adenovirus AdEasy+rAR
T1 sequence (P15207 1-902): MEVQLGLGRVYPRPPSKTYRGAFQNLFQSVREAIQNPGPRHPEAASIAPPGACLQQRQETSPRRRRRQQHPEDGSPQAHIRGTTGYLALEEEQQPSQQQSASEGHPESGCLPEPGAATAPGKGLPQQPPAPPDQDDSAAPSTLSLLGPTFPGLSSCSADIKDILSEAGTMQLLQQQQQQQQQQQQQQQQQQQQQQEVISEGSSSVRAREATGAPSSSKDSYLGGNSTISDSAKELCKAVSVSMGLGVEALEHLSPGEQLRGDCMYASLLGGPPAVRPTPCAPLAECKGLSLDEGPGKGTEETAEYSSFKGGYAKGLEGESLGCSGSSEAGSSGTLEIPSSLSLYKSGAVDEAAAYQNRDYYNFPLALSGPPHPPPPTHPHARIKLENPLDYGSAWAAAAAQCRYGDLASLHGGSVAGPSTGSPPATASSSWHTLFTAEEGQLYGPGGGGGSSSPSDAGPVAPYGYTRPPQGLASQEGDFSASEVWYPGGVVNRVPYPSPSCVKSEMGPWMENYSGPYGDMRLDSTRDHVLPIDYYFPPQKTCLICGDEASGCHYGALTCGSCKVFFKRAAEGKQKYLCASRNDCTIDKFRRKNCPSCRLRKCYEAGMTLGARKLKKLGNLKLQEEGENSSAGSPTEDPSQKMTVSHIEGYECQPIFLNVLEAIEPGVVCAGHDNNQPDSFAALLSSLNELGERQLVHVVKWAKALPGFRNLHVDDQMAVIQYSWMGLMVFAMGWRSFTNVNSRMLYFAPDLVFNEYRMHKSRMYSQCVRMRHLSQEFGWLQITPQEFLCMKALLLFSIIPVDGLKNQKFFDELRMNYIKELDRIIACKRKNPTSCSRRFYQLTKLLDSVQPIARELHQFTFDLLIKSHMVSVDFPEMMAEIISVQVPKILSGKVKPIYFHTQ
How it was run: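 L929 cells in phenol red-free, charcoal-stripped serum medium transduced with AdEasy+rAR (moi 1:500) and exposed 48 h at 37 °C to compound alone (agonist mode) or with R1881 (antagonist mode; 2.5 nM as the 2.5× dilution).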

[3] = molecular target: T2, androgen receptor (AdEasy+rAR, COS-7 cells) (Rattus norvegicus, UniProt P15207); assay: COS-7 Whole-Cell Androgen Receptor Binding Assay, Adenovirus Transduction; conditions: for inhibition at 3 µM / % Inhibition, COS Binding: concentration of 3000 nM; for % Inhibition, COS Binding: 3 µM
T2 construct: expressed in transfected cells; host or cells: COS-7 cells transduced with adenovirus AdEasy+rAR
T2 sequence (P15207 1-902): T1 sequence (P15207 1-902)
Protocol: COS-7 cells were plated in 96-well plates at 20,000 cells per well, in a solution of DMEM/F12 (GIBCO) containing 10% (v/v) charcoal-treated fetal bovine serum (Hyclone) and lacking phenol red. The cells were then incubated overnight at 37° C. in 5% (v/v) humidified CO2.
Test compound solutions were prepared by diluting the test compound in 100% (v/v) DMSO, if necessary.
Next, 1 mL of DMEM/F12 lacking phenol red was pipetted into each of the wells of a 2-mL 96-well assay block. […] The wells were carefully mixed by pipette.
In a 15 mL or 50 mL sterile centrifuge tube, a dilution in DMEM/F12 of the adenovirus AdEasy+rAR at a moi of 1:50 per well was prepared.
The medium was removed from the 96-well plates by inversion and the plates dried very briefly, inverted, on a sterile towel. As soon as possible after medium removal, 40 μL of the diluted test compound was added to each well, in duplicate. […] The plates were then incubated for 48 hours at 37° C. in 5% (v/v) humidified CO2.
The medium was removed from the above incubated plates by inversion and dried. Each well was then washed with 0.35 mL of 1× PBS. The PBS was then removed from the plates by inversion and the plates dried.
To each well was then added 50 μL of 0.5% (v/v) Triton X-100 (Sigma) in 1× PBS and the plates placed on a rotary shaker for 5 min. The contents of each well were then transferred to an OptiPlate-96 (Packard) scintillation plate. To each well was then added 0.2 mL of Microscint-20 (Packard) and the wells counted on a TopCount (Packard).
Percent inhibition was determined by testing dilutions of the test compound (usually duplicates of 10 μM) in the binding assay. Counts per well were measured and percents of inhibition determined. […] Counts per well were measured and IC50s determined by linear regression.

[4] = read-out: IC50 (nM), COS Binding

Structure (SMILES) | active / inactive: inhibition of testosterone-enhanced prostate weight [1] | inhibition at 3 µM [2] [%] | % Activity, L929 androgen receptor functional assay ([2]; 3000 nM) [%] | inhibition at 3 µM [3] [%] | IC50 [3, 4] | % Activity, L929 androgen receptor functional assay ([2]; 3000 nM, 3 µM) | IC50 [2] | % Inhibition, L929 androgen receptor functional assay ([2]; 3 µM) [%] | % Inhibition, COS Binding [3] | EC50 [2] [nM] | % Activity, L929 androgen receptor functional assay ([2]; @ 8000 nM) | IC50 ([3]; IC50 (nM), COS Binding) [nM]
CCC(O)(CS(=O)(=O)CC(F)(F)F)c1[nH]c2cc(C(F)(F)F)c([N+](=O)[O-])cc2c1Cl (stereo not shown) [Compound 199] | inactive | 59 | 2 | 82 | 310 nM | – | – | – | – | – | – | –
CC(O)(CSCc1cccs1)c1cc2cc([N+](=O)[O-])c(C(F)(F)F)cc2[nH]1 (stereo not shown) [Compound 197] | inactive | -26 | 2 | 86 | > 3000 nM | – | – | – | – | – | – | –
CCS(=O)(=O)CC(C)(O)c1[nH]c2cc(C(F)(F)F)c(C#N)cc2c1C (single isomer, unassigned) [Compound 252] | active | – | – | – | > 3000 nM | 1% | 3100 nM | 65 | 68% | – | – | –
CCSCC(C)(OC)c1cc2cc(C#N)c(C(F)(F)F)cc2n1C (stereo not shown) [Compound 235] | inactive | 95 | 3 | 78 | 520 nM | – | 1840 nM | – | – | – | – | –
CCC(O)(CSCC(F)(F)F)c1cc2cc([N+](=O)[O-])c(C(F)(F)F)cc2[nH]1 (stereo not shown) [Compound 185] | active | 97 | 2 | 92 | 61 nM | – | – | – | – | – | – | –
CSCC(C)(O)c1cc2cc([N+](=O)[O-])c(C(F)(F)F)cc2[nH]1 (racemic) [Compound 139] | active | – | – | 94 | 63 nM and 252 nM | 0% and 1% | – | – | 97% | – | – | –
CCSCC(C)(O)c1cc2cc([N+](=O)[O-])cc(C(F)(F)F)c2[nH]1 (stereo not shown) [Compound 212] | active | 101 | −3 | 86 | 98 nM | – | – | – | – | – | – | –
CCSCC(C)(O)c1cc2cc(Br)c(C(F)(F)F)cc2[nH]1 (stereo not shown) [Compound 220] | inactive | 103 | −3 | – | 34 nM | – | – | – | – | – | – | –
CC(O)(CSCC(F)(F)F)c1cc2cc(F)c(C(F)(F)F)cc2[nH]1 (stereo not shown) [Compound 189] | inactive | 85 | 3 | 100 | 280 nM | – | – | – | – | – | – | –
CN(C)c1ccccc1SCC(C)(O)c1cc2cc(Cl)c(C(F)(F)F)cc2[nH]1 (stereo not shown) [Compound 127] | inactive | – | −5 | – | > 1200 nM | – | – | – | 41% and 74% | – | – | –
CCCS(=O)(=O)CC(C)(O)c1cc2cc([N+](=O)[O-])c(C(F)(F)F)cc2[nH]1 (stereo not shown) [Compound 177] | active | 89 | 2 | 90 | 88 nM | – | – | – | – | – | – | –
CCS(=O)(=O)CC(C)(O)c1[nH]c2cc(C(F)(F)F)c(C#N)cc2c1C (single isomer, unassigned) [Compound 251, 2-(2-Ethanesulfonyl-1-hydroxy-1-methyl-ethyl)-3-methyl-6-trifluoromethyl-1H-indole-5-carbonitrile] | active | – | – | 85 | 220 nM | −1% | 200 nM | – | – | – | – | –
CCSCC(C)(O)c1cc2cc(C#N)c(C(F)(F)F)cc2[nH]1 (stereo not shown) [Compound 209] | active | – | – | 61 | 1840 nM | – | 372 nM | – | – | > 8000 | −3 @ 8000 nM % | –
CCSCC(C)(O)c1[nH]c2cc(C(F)(F)F)c(C#N)cc2c1C (single isomer, unassigned) [Compound 234, 2-(2-Ethylsulfanyl-1-hydroxy-1-methyl-ethyl)-3-methyl-6-trifluoromethyl-1H-indole-5-carbonitrile] | inactive | – | – | – | 539 nM | −1% | 215 nM | 99 | 71% | – | – | –
CCSCC(C)(O)c1cc2cc(C#N)c(C(F)(F)F)cc2[nH]1 (single isomer, unassigned) [Compound 217, 2-(2-Ethylsulfanyl-1-hydroxy-1-methyl-ethyl)-6-trifluoromethyl-1H-indole-5-carbonitrile] | active | 87 | 5 | – | – | – | 969 nM and 415 nM and 810 nM | 80 | 38% and 61% and 69% | > 8000 | 0 @ 8000 nM % | –
CC(O)(CS(C)(=O)=O)c1cc2cc(Cl)c(C(F)(F)F)cc2n1S(C)(=O)=O (stereo not shown) [Compound 137] | inactive | 77 | 0 | 73 | – | – | – | – | – | – | – | > 1500
CC(O)(CSCC(F)(F)F)c1[nH]c2cc(C(F)(F)F)c([N+](=O)[O-])cc2c1I (stereo not shown) [Compound 213] | active | 92 | – | 71 | > 600 nM | – | 372 nM | – | – | > 8000 | −1 @ 8000 nM % | –
CCSCC(C)(O)c1cc2cc(C#N)c(C(F)(F)F)cc2n1C (stereo not shown) [Compound 236] | active | 103 | 2 | 83 | 105 nM | – | 821 nM | – | – | – | – | –
CC(O)(CSc1ccc(C(=O)O)cc1)c1cc2cc(Cl)c(C(F)(F)F)cc2[nH]1 (stereo not shown) [Compound 133] | inactive | 19 | −4 | 65 | – | – | – | – | – | – | – | > 1500

From US7282507B2, “Indole derivatives as selective androgen receptor modulators (SARMS)” (Janssen Pharmaceutica N.V., priority 2004, dated 2007)
